In patent publication US20040077580A1, “Antisense modulation of PI3K P85 Expression” (priority 2000, published 2004):
Strand notation (5' to 3'): a small letter for the sugar, then the base; units joined by * are phosphorothioate-linked, units joined directly phosphodiester-linked; [ ] holds rarer units or linkages, { } end groups; capitals alone tell only the bases. e = 2'-O-(2-methoxyethyl) (MOE); [5mC] = 5-methylcytosine; d = 2'-deoxy (DNA)

system: human PI3K p85 RNA; assay: Inhibition of human PI3K p85 mRNA levels by antisense oligonucleotides, real-time quantitative PCR; format: cell-based; conditions: chimeric phosphorothioate oligonucleotides with 2′-MOE wings and deoxy gap, oligonucleotide 150 nM, averaged from two experiments
Protocol: Cells were harvested 16 hours after oligonucleotide treatment.
Poly(A)+ mRNA was isolated according to Miura et al., Clin. Chem., 1996, 42, 1758-1764. Other methods for poly(A)+ mRNA isolation are taught in, for example, Ausubel, F. M. et al., Current Protocols in Molecular Biology, Volume 1, pp. 4.5.1-4.5.3, John Wiley & Sons, Inc., 1993. […] 60 μL lysis buffer (10 mM Tris-HCl, pH 7.6, 1 mM EDTA, 0.5 M NaCl, 0.5% NP-40, 20 mM vanadyl-ribonucleoside complex) was added to each well, the plate was gently agitated and then incubated at room temperature for five minutes. 55 μL of lysate was transferred to Oligo d(T) coated 96-well plates (AGCT Inc., Irvine Calif.). Plates were incubated for 60 minutes at room temperature, washed 3 times with 200 μL of wash buffer (10 mM Tris-HCl pH 7.6, 1 mM EDTA, 0.3 M NaCl). After the final wash, the plate was blotted on paper towels to remove excess wash buffer and then air-dried for 5 minutes. 60 μL of elution buffer (5 mM Tris-HCl pH 7.6), preheated to 70° C. was added to each well, the plate was incubated on a 90° C. hot plate for 5 minutes, and the eluate was then transferred to a fresh 96-well plate.
PI3K p85 probes and primers were designed to hybridize to the human PI3K p85 sequence, using published sequence information (GenBank accession number M61906, incorporated herein as SEQ ID NO: 1).
Target sites are indicated by nucleotide numbers, as given in the sequence source reference (Genbank accession no. M61906), to which the oligonucleotide binds. All compounds in Table 1 are oligodeoxynucleotides with phosphorothioate backbones (internucleoside linkages) throughout. […] Data are averages from two experiments. If present, “N.D.” indicates “no data”.
In accordance with the present invention, a second series of oligonucleotides targeted to human PI3K p85 were synthesized. Target sites are indicated by nucleotide numbers, as given in the sequence source reference (Genbank accession no. M61906), to which the oligonucleotide binds.
Cytidine residues in the 2′-MOE wings are 5-methylcytidines.
Data were obtained by real-time quantitative PCR as described in other examples herein and are averaged from two experiments. If present, “N.D.” indicates “no data”.

Substance | % Inhibition of PI3K p85 mRNA levels
28017 (antisense eA*eT*e[5mC]*eT*dT*dC*dT*dT*dC*dT*dC*dT*dT*dT*e[5mC]*e[5mC]*eT*eT) [compound 28017] | 59%
28018 (antisense eG*e[5mC]*eT*eT*dC*dC*dT*dG*dT*dC*dC*dA*dT*dC*eA*e[5mC]*eT*eG) [compound 28018] | 47%
28019 (antisense eT*eT*e[5mC]*eA*dA*dT*dG*dG*dC*dT*dT*dC*dC*dA*e[5mC]*eG*eA*eG) [compound 28019] | 6%
28020 (antisense eA*eA*eT*eT*dC*dT*dG*dC*dC*dA*dG*dG*dT*dT*eG*e[5mC]*eT*eG) [compound 28020] | 12%
28021 (antisense eG*eT*eA*eA*dG*dT*dC*dC*dA*dG*dG*dA*dG*dA*eT*eA*eG*e[5mC]) [compound 28021] | 43%
28022 (antisense eA*eT*eT*eT*dC*dA*dC*dT*dG*dT*dA*dA*dA*dC*eG*eG*e[5mC]*eT) [compound 28022] | 69%
28023 (antisense eG*e[5mC]*eT*eT*dG*dA*dA*dG*dA*dA*dA*dT*dG*dT*eT*eT*eT*eA) [compound 28023] | 43%
28024 (antisense eG*eG*e[5mC]*eT*dG*dC*dT*dG*dA*dG*dA*dA*dT*dC*eT*eG*eA*eA) [compound 28024] | 59%
28025 (antisense eG*eT*eT*e[5mC]*dA*dT*dT*dC*dC*dA*dT*dT*dC*dA*eG*eT*eT*eG) [compound 28025] | 22%
28026 (antisense eA*eG*eT*eA*dG*dG*dT*dT*dT*dT*dG*dG*dT*dG*eG*eT*eT*eT) [compound 28026] | 54%
28027 (antisense eT*eT*eA*eT*dT*dC*dA*dT*dA*dC*dC*dG*dT*dT*eG*eT*eT*eG) [compound 28027] | 45%
28028 (antisense eA*eT*eT*e[5mC]*dA*dG*dC*dA*dT*dT*dT*dT*dG*dT*eA*eA*eG*eG) [compound 28028] | 0%
28029 (antisense eA*e[5mC]*e[5mC]*eA*dC*dA*dG*dA*dA*dC*dT*dG*dA*dA*eG*eG*eT*eT) [compound 28029] | 57%
28030 (antisense eA*eT*eT*eT*dC*dC*dT*dG*dG*dG*dA*dT*dG*dT*eG*e[5mC]*eG*eG) [compound 28030] | 74%
28031 (antisense e[5mC]*e[5mC]*eG*e[5mC]*dT*dC*dT*dT*dG*dG*dG*dT*dC*dT*eG*eG*e[5mC]*eA) [compound 28031] | 15%
28032 (antisense eT*eT*eT*e[5mC]*dT*dC*dA*dT*dT*dG*dC*dC*dT*dT*e[5mC]*eA*e[5mC]*eG) [compound 28032] | 35%
28033 (antisense eA*eT*e[5mC]*e[5mC]*dT*dT*dT*dG*dT*dA*dT*dT*dT*dC*eT*eT*eT*e[5mC]) [compound 28033] | 46%
28034 (antisense eT*eT*e[5mC]*eA*dA*dG*dT*dC*dT*dT*dC*dT*dT*dC*e[5mC]*eA*eA*eT) [compound 28034] | 28%
28035 (antisense eA*eT*eT*eG*dG*dT*dC*dT*dC*dT*dC*dG*dT*dC*eT*eT*eT*e[5mC]) [compound 28035] | 0%
28036 (antisense eT*e[5mC]*eA*eA*dC*dT*dT*dC*dT*dT*dT*dT*dG*dC*e[5mC]*eG*eA*eA) [compound 28036] | 59%

Substance | % Inhibition of PI3K p85 mRNA levels
28037 (antisense eT*eT*eG*e[5mC]*dC*dC*dA*dA*dC*dC*dA*dC*dT*dC*eG*eT*eT*e[5mC]) [compound 28037] | 28%
28038 (antisense eG*eT*e[5mC]*eT*dT*dC*dA*dG*dT*dG*dT*dT*dT*dT*e[5mC]*eA*eT*eT) [compound 28038] | 0%
28039 (antisense e[5mC]*eT*eT*eT*dG*dT*dT*dT*dC*dG*dG*dT*dT*dG*e[5mC]*eT*eG*e[5mC]) [compound 28039] | 46%
28040 (antisense e[5mC]*e[5mC]*eT*eG*dT*dT*dT*dA*dC*dT*dG*dC*dT*dC*eT*e[5mC]*e[5mC]*e[5mC]) [compound 28040] | 0%
28041 (antisense e[5mC]*e[5mC]*eA*e[5mC]*dC*dA*dC*dT*dA*dC*dA*dG*dA*dG*e[5mC]*eA*eG*eG) [compound 28041] | 38%
28042 (antisense e[5mC]*eT*eT*eT*dA*dC*dT*dT*dC*dG*dC*dC*dG*dT*e[5mC]*e[5mC]*eA*e[5mC]) [compound 28042] | 0%
28043 (antisense eA*eA*eA*eG*dC*dC*dA*dT*dA*dG*dC*dC*dA*dG*eT*eT*eG*e[5mC]) [compound 28043] | 10%
28044 (antisense eA*e[5mC]*eA*eT*dT*dG*dA*dG*dG*dG*dA*dG*dT*dC*eG*eT*eT*eG) [compound 28044] | 0%
28045 (antisense eG*e[5mC]*e[5mC]*e[5mC]*dT*dT*dT*dG*dC*dT*dT*dT*dC*dC*eA*eG*eA*eG) [compound 28045] | 0%
28046 (antisense eA*eT*e[5mC]*eA*dG*dA*dC*dT*dG*dG*dA*dG*dA*dG*eG*eA*eG*e[5mC]) [compound 28046] | 32%
28047 (antisense eA*eA*eA*eG*dA*dA*dG*dG*dG*dA*dT*dA*dA*dG*e[5mC]*eA*e[5mC]*eT) [compound 28047] | 18%
28048 (antisense e[5mC]*eT*eG*e[5mC]*dC*dT*dC*dT*dC*dT*dC*dT*dC*dC*eT*e[5mC]*e[5mC]*eG) [compound 28048] | 0%
28049 (antisense e[5mC]*e[5mC]*eA*eG*dG*dC*dT*dA*dA*dA*dC*dC*dA*dG*eG*e[5mC]*eT*eG) [compound 28049] | 24%
28050 (antisense eT*eG*eT*e[5mC]*dT*dG*dG*dG*dT*dC*dC*dA*dC*dC*eG*eT*eG*e[5mC]) [compound 28050] | 57%
28051 (antisense eG*eA*e[5mC]*eG*dT*dG*dC*dC*dT*dT*dT*dC*dT*dG*e[5mC]*eT*eA*e[5mC]) [compound 28051] | 53%
28052 (antisense eA*eT*eT*e[5mC]*dT*dC*dC*dC*dA*dA*dA*dG*dC*dG*eT*e[5mC]*e[5mC]*e[5mC]) [compound 28052] | 55%
28053 (antisense eT*eT*e[5mC]*eT*dG*dG*dC*dA*dC*dT*dT*dT*dC*dT*eA*eT*eG*eA) [compound 28053] | 0%
28054 (antisense e[5mC]*e[5mC]*eT*eT*dC*dA*dG*dC*dA*dA*dA*dA*dC*dA*eA*eA*eA*e[5mC]) [compound 28054] | 0%
28055 (antisense eA*eA*e[5mC]*eT*dG*dA*dA*dA*dT*dA*dA*dC*dA*dA*e[5mC]*eT*eT*eA) [compound 28055] | 14%
28056 (antisense e[5mC]*e[5mC]*eA*eA*dC*dA*dA*dA*dA*dC*dA*dG*dT*dC*e[5mC]*eA*eA*eA) [compound 28056] | 15%

same assay, conditions: phosphorothioate oligodeoxynucleotides, oligonucleotide 150 nM, averages from two experiments

Substance | % Inhibition of PI3K p85 mRNA levels
28012 (antisense ATTCTCCCAAAGCGTCCC; DNA, all phosphorothioate, methylation of C not given here) [compound 28012] | 19%
28013 (antisense TTCTGGCACTTTCTATGA; DNA, all phosphorothioate, methylation of C not given here) [compound 28013] | 28%
28014 (antisense CCTTCAGCAAAACAAAAC; DNA, all phosphorothioate, methylation of C not given here) [compound 28014] | 24%
28015 (antisense AACTGAAATAACAACTTA; DNA, all phosphorothioate, methylation of C not given here) [compound 28015] | 6%
28016 (antisense CCAACAAAACAGTCCAAA; DNA, all phosphorothioate, methylation of C not given here) [compound 28016] | 6%
